Common to all, as to format: cell-based
Holding throughout (conditions): hepg2, 24 h

In data set [1] the test system is HepG2. In words: Cytotoxicity against human HepG2 cells assessed as reduction in cell viability after 24 hrs by Neutral red uptake assay.
The test system of data set [2] is HepG2. As to the kind of experiment: Cytotoxicity against human HepG2 cells assessed as reduction in cell viability at >/= 50 uM after 24 hrs by Neutral red uptake assay.
The subject of data set [3] is HepG2. In words: Cytotoxicity against human HepG2 cells assessed as disruption of membrane integrity at >= 50 uM after 24 hrs by LDH release assay. In general terms: Release of lactate dehydrogenase indicates damage to the cell membrane.
Data set [4] relates to HepG2. In words: Cytotoxicity against human HepG2 cells assessed as NBD-PC phospholipid accumulation after 24 hrs by Hoechst 33342 normalization-based fluorescence assay.
In data set [5] the test system is HepG2. In words: Cytotoxicity against human HepG2 cells at 100 uM after 24 hrs by Hoechst 33342 staining-based fluorescence assay.
For data set [6], the system named is HepG2. In words: Cytotoxicity against human HepG2 cells assessed as increase in lysosomal beta-hexosaminidase level at 10 to 100 uM after 24 hrs by MUG-based fluorescence assay.
The subject of data set [7] is HepG2. As to the kind of experiment: Cytotoxicity against human HepG2 cells assessed as formation of lysosomal inclusion bodies at 50 uM after 24 hrs by transmission electron microscopy.
Data set [8] relates to HepG2. As to the kind of experiment: Cytotoxicity against human HepG2 cells assessed as reduction in cell viability at 0.1 to 100 uM after 24 hrs by Neutral red uptake assay.
Data set [9] deals with HepG2. In words: Cytotoxicity against human HepG2 cells assessed as disruption of membrane integrity up to 100 uM after 24 hrs by LDH release assay.
Data set [10] deals with HepG2. In words: Cytotoxicity against human HepG2 cells assessed as NBD-PC phospholipid accumulation at 0.1 to 100 uM after 24 hrs by Hoechst 33342 normalization-based fluorescence assay.
Data set [11] relates to HepG2. In words: Cytotoxicity against human HepG2 cells assessed as increase in lysosomal beta-hexosaminidase level at 50 to 100 uM after 24 hrs by MUG-based fluorescence assay.
The test system of data set [12] is HepG2. As to the kind of experiment: Cytotoxicity against human HepG2 cells assessed as reduction in cell viability at 100 uM after 24 hrs by Neutral red uptake assay.
Data set [13] has as its system HepG2. As to the kind of experiment: Cytotoxicity against human HepG2 cells assessed as increase in lysosomal beta-hexosaminidase level at 20 uM after 24 hrs by MUG-based fluorescence assay.
The subject of data set [14] is HepG2. As to the kind of experiment: Cytotoxicity against human HepG2 cells assessed as increase in lysosomal beta-hexosaminidase level at 35 uM after 24 hrs by MUG-based fluorescence assay.
Data set [15] has as its system HepG2. In words: Cytotoxicity against human HepG2 cells assessed as disruption of membrane integrity at 20 uM after 24 hrs by LDH release assay.
Data set [16] deals with HepG2. As to the kind of experiment: Cytotoxicity against human HepG2 cells assessed as disruption of membrane integrity at 35 uM after 24 hrs by LDH release assay.

Results on twelve compounds are retold here after ChEMBL document CHEMBL3407411, “Evaluating the risk of phospholipidosis using a new multidisciplinary pipeline approach” (Eur J Med Chem, 2015).

With `CCOc1ccc(Br)cc1CNCC1CCNCC1`, the Activity entry in the data set on HepG2 [1] is given as “Dose-dependent effect”; in the data set on HepG2 [2], “Toxic”; in the data set with HepG2 [3] it was “Toxic”; with HepG2 [4], “Dose-dependent effect”; in the data set with HepG2 [5], “Toxic”; in the data set with HepG2 [6] it was “Toxic”. In addition, the Activity result in the data set with HepG2 [7] is listed as “Toxic”.
As for `OC(CN1CCOCC1)c1csc2ccccc12` (stereo unspecified), the Activity entry with HepG2 [8], in the data set on HepG2 [9] and with HepG2 [10] was “Non-toxic” throughout.
Turning to `CCCCc1oc2ccccc2c1C(=O)c1cc(I)c(OCCN(CC)CC)c(I)c1` [AMIODARONE], the Activity result is recorded as “Dose-dependent effect” with HepG2 [1]; “Toxic” in the data set with HepG2 [3]; “Dose-dependent effect” in the data set with HepG2 [4]; “Toxic” in the data set on HepG2 [5]; “Toxic” in the data set with HepG2 [11].
For `CCN(CC)CCNC1=Nc2ccccc2CCC1`, the Activity entry is reported as “Non-toxic” in the data set on HepG2 [10], “Toxic” in the data set on HepG2 [11] and “Toxic” in the data set with HepG2 [7].
In the case of `CCN(CC)CCNCc1c(OC)ccc2ccccc12`, the Activity entry in the data set with HepG2 [12] is on record as “Non-toxic”; in the data set with HepG2 [4] it was “Dose-dependent effect”; with HepG2 [5], “Non-toxic”; in the data set with HepG2 [6], “Toxic”; with HepG2 [7], “Toxic”.
As for `COc1ccc(CNCC(O)c2nnn(C)n2)cc1OC` (stereo unspecified), the Activity result in the data set on HepG2 [8] is listed as “Non-toxic”; with HepG2 [9], “Non-toxic”; with HepG2 [10] it was “Toxic”; in the data set on HepG2 [7], “Toxic”.
With `c1cc(C[N+]23CN4CN(CN(C4)C2)C3)cs1`, the Activity entry in the data set on HepG2 [8], in the data set with HepG2 [9] and in the data set on HepG2 [10] was “Non-toxic” in each case.
As to `Clc1ccccc1CNC1CN2CCC1CC2` (stereo unspecified), the Activity entry in the data set on HepG2 [10] was “Non-toxic”.
As to `CC1=NN(C(=O)c2nn(C)cc2[N+](=O)[O-])C(O)(C(F)(F)F)C1` (stereo unspecified), the Activity entry with HepG2 [8], with HepG2 [9] and with HepG2 [10] was “Non-toxic” throughout.
As to `Cc1cccc(C)c1C(OCCN(C)C)C1CCCCC1` (stereo unspecified), the Activity result with HepG2 [1] was “Dose-dependent effect”; in the data set on HepG2 [2], “Toxic”; in the data set with HepG2 [3] it was “Toxic”; with HepG2 [4] it was “Dose-dependent effect”; in the data set on HepG2 [5] it was “Toxic”; in the data set on HepG2 [11], “Toxic”. For the same compound, the Activity result is recorded as “Toxic” in the data set with HepG2 [13]; “Toxic” in the data set on HepG2 [14]; “Non-toxic” in the data set with HepG2 [15]; “Non-toxic” with HepG2 [16]; “Toxic” in the data set on HepG2 [7].
`CN/C(=N/CCSCc1nc[nH]c1C)NC#N` [CIMETIDINE]: the Activity result in the data set with HepG2 [8], with HepG2 [9] and in the data set on HepG2 [10] was “Non-toxic” in each case.
For the compound `C1CN(CCN2CCOCC2)CCO1`, the Activity entry in the data set on HepG2 [8], in the data set on HepG2 [9] and in the data set with HepG2 [10] was “Non-toxic” throughout.
